Data: patent US20210101874A1, “MICROBIOCIDAL OXADIAZOLE DERIVATIVES” (SYNGENTA PARTICIPATIONS AG, priority 2017, published 2021)

Each compound was assayed on Glomerella lagenarium (Colletotrichum lagenarium) (assay: Glomerella lagenarium (Colletotrichum lagenarium) liquid culture / cucumber / preventative (anthracnose)). Settings: Colletotrichum orbiculare; 20 ppm in the applied formulation; conidia in PDB nutrient broth, 24° C.; 3 to 4 days after application; compared to untreated; read-out: disease control (inhibition of growth measured photometrically).
Type: cell-based
Protocol: Mycelia fragments or conidia suspensions of a fungus prepared either freshly from liquid cultures of the fungus or from cryogenic storage, are directly mixed into nutrient broth. DMSO solutions of the test compound (max. 10 mg/ml) are diluted with 0.025% Tween20 by a factor of 50 and 10 µl of this solution is pipetted into a microtiter plate (96-well format). The nutrient broth containing the fungal spores/mycelia fragments is then added to give an end concentration of the tested compound. The test plates are incubated in the dark at 24° C. and 96% relative humidity. The inhibition of fungal growth is determined photometrically after 2 to 7 days, depending on the pathosystem, and percent antifungal activity relative to the untreated check is calculated. Conidia of the fungus from cryogenic storage are directly mixed into nutrient broth (PDB—potato dextrose broth). After placing a (DMSO) solution of test compound into a microtiter plate (96-well format), the nutrient broth containing the fungal spores is added. The test plates are incubated at 24° C. and the inhibition of growth is measured photometrically 3 to 4 days after application. The following compounds at 20 ppm in the applied formulation give at least 80% disease control in this test when compared to untreated control under the same conditions, which show extensive disease development.

`O=S(=O)(Cc1ccccc1)N(Cc1ccc(-c2noc(C(F)(F)F)n2)cc1)C1CC1` [Compound 1.4, N-cyclopropyl-1-phenyl-N-[[4-[5-(trifluoromethyl)-1,2,4-oxadiazol-3-yl]phenyl]methyl] methanesulfonamide] was tested. Which inhibition at 20 ppm did it give?
Its inhibition at 20 ppm is no less than 80%.

`CCNS(=O)(=O)N(Cc1ccc(-c2noc(C(F)(F)F)n2)cc1)OC` [Compound 1.18, 3-[4-[[ethylsulfamoyl (methoxy)amino]methyl]phenyl]-5-(trifluoromethyl)-1,2,4-oxadiazole] was tested. Which inhibition at 20 ppm did it give?
The inhibition at 20 ppm was no less than 80%.

How did the inhibition at 20 ppm turn out when `CCCNS(=O)(=O)N(Cc1ccc(-c2noc(C(F)(F)F)n2)cc1)OC` [Compound 1.22, 3-[4-[[methoxy (propylsulfamoyl)amino]methyl]phenyl]-5-(trifluoromethyl)-1,2,4-oxadiazole] was run?
The inhibition at 20 ppm was no less than 80%.

`CCN(Cc1ccc(-c2noc(C(F)(F)F)n2)cc1)S(=O)(=O)c1ccccc1` [Compound 1.24, N-ethyl-N-[[4-[5-(trifluoromethyl)-1,2,4-oxadiazol-3-yl]phenyl]methyl] benzenesulfonamide] was tested. Which inhibition at 20 ppm did it give?
The inhibition at 20 ppm was no less than 80%.

How did the inhibition at 20 ppm turn out when `CCCN(Cc1ccc(-c2noc(C(F)(F)F)n2)cc1)S(=O)(=O)CCC` [Compound 1.26, N-propyl-N-[[4-[5-(trifluoromethyl)-1,2,4-oxadiazol-3-yl]phenyl]methyl] propane-1-sulfonamide] was run?
The inhibition at 20 ppm was no less than 80%.

`CCN(Cc1ccc(-c2noc(C(F)(F)F)n2)cc1)S(=O)(=O)CC1CC1(Cl)Cl` (stereo not shown) [Compound 1.31, 1-(2,2-dichlorocyclopropyl)-N-ethyl-N-[[4-[5-(trifluoromethyl)-1,2,4-oxadiazol-3-yl]phenyl]methyl] methanesulfonamide] was tested. Which inhibition at 20 ppm did it give?
Its inhibition at 20 ppm is no less than 80%.

How did the inhibition at 20 ppm turn out when `COCCS(=O)(=O)N(Cc1ccc(-c2noc(C(F)(F)F)n2)cc1)OC` [Compound 1.40, N,2-dimethoxy-N-[[4-[5-(trifluoromethyl)-1,2,4-oxadiazol-3-yl]phenyl]methyl] ethanesulfonamide] was run?
The inhibition at 20 ppm was no less than 80%.

For `CCCCS(=O)(=O)N(C)Cc1ccc(-c2noc(C(F)(F)F)n2)cc1` [Compound 1.55, N-methyl-N-[[4-[5-(trifluoromethyl)-1,2,4-oxadiazol-3-yl]phenyl]methyl] butane-1-sulfonamide], which inhibition at 20 ppm is on record?
The inhibition at 20 ppm was no less than 80%.

`CNS(=O)(=O)N(Cc1ccc(-c2noc(C(F)(F)F)n2)cc1)OC` [Compound 1.58, 3-[4-[[methoxy(methylsulfamoyl)amino]methyl]phenyl]-5-(trifluoromethyl)-1,2,4-oxadiazole] was tested. Which inhibition at 20 ppm did it give?
The inhibition at 20 ppm was no less than 80%.

`CCCN(Cc1ccc(-c2noc(C(F)(F)F)n2)cc1)S(=O)(=O)CCC(=O)OC` [Compound 1.72, methyl 3-[propyl-[[4-[5-(trifluoromethyl)-1,2,4-oxadiazol-3-yl]phenyl]methyl]sulfamoyl]propanoate] was tested. Which inhibition at 20 ppm did it give?
Its inhibition at 20 ppm is no less than 80%.

How did the inhibition at 20 ppm turn out when `C/C=C/S(=O)(=O)N(CCC)Cc1ccc(-c2noc(C(F)(F)F)n2)cc1` [Compound 1.75, (E)-N-propyl-N-[[4-[5-(trifluoromethyl)-1,2,4-oxadiazol-3-yl]phenyl]methyl] prop-1-ene-1-sulfonamide] was run?
Its inhibition at 20 ppm is no less than 80%.

`CCCN(Cc1ccc(-c2noc(C(F)(F)F)n2)cc1)S(=O)(=O)Cc1ccccc1` [Compound 1.77, 1-phenyl-N-propyl-N-[[4-[5-(trifluoromethyl)-1,2,4-oxadiazol-3-yl]phenyl]methyl] methanesulfonamide] was tested. Which inhibition at 20 ppm did it give?
The inhibition at 20 ppm was no less than 80%.

With `CCCN(Cc1ccc(-c2noc(C(F)(F)F)n2)cc1)S(=O)(=O)CC` [Compound 1.78, N-propyl-N-[[4-[5-(trifluoromethyl)-1,2,4-oxadiazol-3-yl]phenyl]methyl] ethanesulfonamide] as the compound, how does the inhibition at 20 ppm read?
The inhibition at 20 ppm was no less than 80%.

`C=CCS(=O)(=O)N(Cc1ccc(-c2noc(C(F)(F)F)n2)cc1)OC` [Compound 1.92, N-methoxy-N-[[4-[5-(trifluoromethyl)-1,2,4-oxadiazol-3-yl]phenyl]methyl] prop-2-ene-1-sulfonamide] was tested. Which inhibition at 20 ppm did it give?
Its inhibition at 20 ppm is no less than 80%.

How did the inhibition at 20 ppm turn out when `C/C=C/S(=O)(=O)N(Cc1ccc(-c2noc(C(F)(F)F)n2)cc1)OC` [Compound 1.94, (E)-N-methoxy-N-[[4-[5-(trifluoromethyl)-1,2,4-oxadiazol-3-yl]phenyl]methyl] prop-1-ene-1-sulfonamide] was run?
The inhibition at 20 ppm was no less than 80%.

`CC(C)N(Cc1ccc(-c2noc(C(F)(F)F)n2)cc1)S(=O)(=O)Cc1ccccc1` [Compound 1.99, N-isopropyl-1-phenyl-N-[[4-[5-(trifluoromethyl)-1,2,4-oxadiazol-3-yl]phenyl]methyl) methanesulfonamide] was tested. Which inhibition at 20 ppm did it give?
Its inhibition at 20 ppm is no less than 80%.

`COC(=O)CS(=O)(=O)NCc1ccc(-c2noc(C(F)(F)F)n2)cc1` [Compound 2.11, methyl 2-[[4-[5-(trifluoromethyl)-1,2,4-oxadiazol-3-yl]phenyl]methyl-sulfamoyl] acetate] was tested. Which inhibition at 20 ppm did it give?
Its inhibition at 20 ppm is no less than 80%.

`COC(=O)CS(=O)(=O)NCc1ccc(-c2noc(C(F)(F)F)n2)c(F)c1` [Compound 2.20, methyl 2-[[3-fluoro-4-[5-(trifluoromethyl)-1,2,4-oxadiazol-3-yl]phenyl]methyl-sulfamoyl] acetate] was tested. Which inhibition at 20 ppm did it give?
The inhibition at 20 ppm was no less than 80%.

Which inhibition at 20 ppm does the source give for `CCCCS(=O)(=O)NCc1ccc(-c2noc(C(F)(F)F)n2)cc1F` [Compound 2.23, N-[[2-fluoro-4-[5-(trifluoromethyl)-1,2,4-oxadiazol-3-yl]phenyl]methyl] butane-1-sulfonamide] here?
The inhibition at 20 ppm was no less than 80%.

For `Cc1ccc(S(=O)(=O)NCc2ccc(-c3noc(C(F)(F)F)n3)c(F)c2)s1` [Compound 3.15, N-[[3-fluoro-4-[5-(trifluoromethyl)-1,2,4-oxadiazol-3-yl]phenyl]methyl]-5-methyl-thiophene-2-sulfonamide], which inhibition at 20 ppm is on record?
The inhibition at 20 ppm was no less than 80%.

`Cc1ccc(S(=O)(=O)NCc2ccc(-c3noc(C(F)(F)F)n3)cc2F)s1` [Compound 3.25, N-[[2-fluoro-4-[5-(trifluoromethyl)-1,2,4-oxadiazol-3-yl]phenyl]methyl]-5-methyl-thiophene-2-sulfonamide] was tested. Which inhibition at 20 ppm did it give?
The inhibition at 20 ppm was no less than 80%.

What follows are compounds tested on Puccinia recondita f. sp. Tritici (assay: Puccinia recondita f. sp. tritici / wheat / leaf disc preventative (brown rust)). Settings: foliar, 200 ppm in the applied formulation, wheat leaf segments cv. Kanzler, inoculated 1 day after application, compared to untreated, assessed 7 to 9 days after application, read-out: disease control.
Type: in vivo
Protocol: Leaf disks or leaf segments of various plant species are cut from plants grown in a greenhouse. The cut leaf disks or segments are placed in multiwell plates (24-well format) onto water agar. The leaf disks are sprayed with a test solution before (preventative) or after (curative) inoculation. Compounds to be tested are prepared as DMSO solutions (max. 10 mg/ml) which are diluted to the appropriate concentration with 0.025% Tween20 just before spraying. The inoculated leaf disks or segments are incubated under defined conditions (temperature, relative humidity, light, etc.) according to the respective test system. A single evaluation of disease level is carried out 3 to 14 days after inoculation, depending on the pathosystem. Percent disease control relative to the untreated check leaf disks or segments is then calculated. Wheat leaf segments cv. Kanzler were placed on agar in multiwell plates (24-well format) and sprayed with the formulated test compound diluted in water. The leaf disks were inoculated with a spore suspension of the fungus 1 day after application. The inoculated leaf segments were incubated at 19° C. and 75% relative humidity (rh) under a light regime of 12 hours light/12 hours darkness in a climate cabinet and the activity of a compound was assessed as percent disease control compared to untreated when an appropriate level of disease damage appears in untreated check leaf segments (7 to 9 days after application). The following compounds at 200 ppm in the applied formulation give at least 80% disease control in this test when compared to untreated control leaf disks under the same conditions, which show extensive disease development.

With `CCNS(=O)(=O)N(Cc1ccc(-c2noc(C(F)(F)F)n2)cc1)OC` [Compound 1.18, 3-[4-[[ethylsulfamoyl (methoxy)amino]methyl]phenyl]-5-(trifluoromethyl)-1,2,4-oxadiazole] as the compound, how does the pest or weed control at 200 ppm read?
Its pest or weed control at 200 ppm is no less than 80%.

With `CCCNS(=O)(=O)N(Cc1ccc(-c2noc(C(F)(F)F)n2)cc1)OC` [Compound 1.22, 3-[4-[[methoxy (propylsulfamoyl)amino]methyl]phenyl]-5-(trifluoromethyl)-1,2,4-oxadiazole] as the compound, how does the pest or weed control at 200 ppm read?
Its pest or weed control at 200 ppm is no less than 80%.

Which pest or weed control at 200 ppm does the source give for `COC(=O)CS(=O)(=O)N(Cc1ccc(-c2noc(C(F)(F)F)n2)cc1)OC` [Compound 1.57, methyl 2-[methoxy-[[4-[5-(trifluoromethyl)-1,2,4-oxadiazol-3-yl]phenyl]methyl]sulfamoyl]acetate] here?
Its pest or weed control at 200 ppm is no less than 80%.

How did the pest or weed control at 200 ppm turn out when `CON(Cc1ccc(-c2noc(C(F)(F)F)n2)cc1)S(=O)(=O)c1ccn(C)n1` [Compound 1.88, N-methoxy-1-methyl-N-[[4-[5-(trifluoromethyl)-1,2,4-oxadiazol-3-yl]phenyl]methyl] pyrazole-3-sulfonamide] was run?
The pest or weed control at 200 ppm was no less than 80%.

For `O=S(=O)(Cc1ccccc1)NCc1ccc(-c2noc(C(F)(F)F)n2)c(F)c1` [Compound 3.22, N-[[3-fluoro-4-[5-(trifluoromethyl)-1,2,4-oxadiazol-3-yl]phenyl]methyl]-1-phenyl-methanesulfonamide], which pest or weed control at 200 ppm is on record?
The pest or weed control at 200 ppm was no less than 80%.

For `O=S(=O)(Cc1ccccc1)NCc1ccc(-c2noc(C(F)(F)F)n2)cc1F` [Compound 3.23, N-[[2-fluoro-4-[5-(trifluoromethyl)-1,2,4-oxadiazol-3-yl]phenyl]methyl]-1-phenyl-methanesulfonamide], which pest or weed control at 200 ppm is on record?
Its pest or weed control at 200 ppm is no less than 80%.

`O=S(=O)(NCc1ccc(-c2noc(C(F)(F)F)n2)cc1F)c1ccccc1` [Compound 3.32, N-[[2-fluoro-4-[5-(trifluoromethyl)-1,2,4-oxadiazol-3-yl]phenyl]methyl] benzenesulfonamide] was tested. Which pest or weed control at 200 ppm did it give?
Its pest or weed control at 200 ppm is no less than 80%.
